{"source": "patent US6469028B1", "about": "“Synthesis and use of retinoid compounds having negative hormone and/or anatgonist activities” (Allergan, Inc., priority 1995, dated 2002)", "key": {"hairless mice [1]": {"system": "hairless mice", "assay": "Example 1: skin irritation by topical agonist, topical antagonist", "type": "in vivo", "settings": "group B: AGN 191183 0.025 mg/kg/d topical alone, 5 days, scored to day 8, mean±SD", "protocol": "More particularly skin irritation was measured on a semiquantitative scale by the daily subjective evaluation of skin flaking and abrasions. A single number, the topical irritation score, summarizes the skin irritation induced in an animal during the course of an experiment. The topical irritation score is calculated as follows. The topical irritation score is the algebraic sum of a composite flaking score and a composite abrasion score. The composite scores range from 0-9 and 0-8 for flaking and abrasions, respectively, and take into account the maximum severity, the time of onset, and the average severity of the flaking and abrasions observed.\nThe severity of flaking is scored on a 5-point scale and the severity of abrasions is scored on a 4-point scale, with higher scores reflecting greater severity. The maximum severity component of the composite scores would be the highest daily severity score assigned to a given animal during the course of observation.\nFor the time of onset component of the composite score, a score ranging from 0 to 4 is assigned as follows:\nThe average severity component of the composite score is the sum of the daily flaking or abrasion scores divided by the number of observation days.\nTo calculate the composite flaking and abrasion scores, the average severity and time of onset scores are summed and divided by 2. The result is added to the maximal severity score. The composite flaking and abrasion scores are then summed to give the overall topical irritation score. Each animal receives a topical irritation score, and the values are expressed as the mean±SD of the individual scores of a group of animals. Values are rounded to the nearest integer.\nFemale hairless mice [Crl:SKH1-hrBR] […] Treatments are applied to the dorsal skin in a total volume of 4 ml/kg (˜0.1 ml). Mice were observed daily and scored for flaking and abrasions up to and including 3 days after the last treatment, i.e., day 8."}, "hairless mice [2]": {"system": "hairless mice", "assay": "Example 2: skin irritation and weight loss by oral agonist, topical antagonist", "type": "in vivo", "settings": "group B: oral AGN 191183 0.26 mg/kg/d alone, 4 days", "protocol": "Mice were simultaneously treated topically on the dorsal skin with vehicle (97.6% acetone/2.4% dimethylsulfoxide) or solutions of AGN 193109 in vehicle (6 ml/kg). Specific doses for the different treatment groups are give in Table 8. Treatments were administered daily for 4 consecutive days. Mice were weighed and graded for topical irritation daily as described in Example 1 up to and including 1 day after the last treatment. Percent body weight change is calculated by subtracting […], dividing by initial body weight, and multiplying by 100%. Topical irritation scores are calculated as described in Example 1."}, "guinea pigs": {"system": "guinea pigs", "assay": "Example 5: premature epiphyseal plate closure (bone toxicity)", "type": "in vivo", "settings": "AGN 191183 0.06 mg/ml, intraperitoneal osmotic pump, 14 days, n=4", "protocol": "The osmotic pumps are designed by the manufacturer to deliver ˜5 μl of solution per hour continuously for 14 days.\nThe animals were euthanized by carbon dioxide asphyxiation 14 days after implantation. The left tibia was removed and placed in 10% buffered formalin. The tibias were decalcified by exposure to a formic acid/formalin solution for 3-4 days, and paraffin sections were prepared. Sections were stained with hematoxylin and eosin by standard methods. The proximal tibial epiphyseal plate was examined and scored as closed or not closed. Epiphyseal plate closure is defined for this purpose as any interruption of the continuity of the epiphyseal growth plate cartilage, i.e., replacement by bone and/or fibroblastic tissue."}, "ECE16-1 cells": {"system": "ECE16-1 cells", "assay": "Example 17: EGF dependent proliferation of ECE16-1 cells", "type": "cell-based", "settings": "10 nM AGN 191183 and 0 nM AGN 193109, three days", "protocol": "ECE16-1 cells were seeded at a density of 1×10^4 cells per cm^2 in complete medium containing DMEM:F12 (3:1), nonessential amino acids, 5% FBS, 5 μg/ml transferring, 2 nM of 3,3′,5 triiodothyronine (thyroid hormone or “T3”), 0.1 nNM cholera toxin, 2 mM L-glutamine, 1.8×10^−4 M adenine and 10 ng/ml EGF. Cells were allowed to attach to plates overnight and then shifted to defined medium containing DMEM:F12 (3:1), 2 mM L-glutamine, nonessential amino acids, 0.1% bovine serum albumin, 1.8×10^−4 M adenine, 5 μg/ml transferring, 2 nM T3, 50 μg/ml ascorbic acid, 100 ug/ml streptomycin, 100 units/ml penicillin and 50 μg/ml gentamicin. Defined medium (DM) was supplemented with 10 ng/ml EGF. […] After three days of treatment, cells were harvested as described by Hembree et al. in Cancer Res. 54:3160 (1994) and cell numbers determined using a COULTER counter."}, "CaSki cells": {"system": "CaSki cells", "assay": "Example 18: proliferation of CaSki cells", "type": "cell-based", "protocol": "EGF was added to the retinoid treated cultures to give a final concentration of 20 ng/ml. […] The media was replaced with fresh media and each of the two retinoid compounds, as appropriate, every day. Cell numbers were determined using a COULTER counter as described above."}, "[3]": {"system": "MRP-8 expression in primary foreskin keratinocytes", "assay": "Example 20: MRP-8 expression in keratinocytes (RT-PCR)", "type": "cell-based, human", "settings": "AGN 191183 10^−7 M or AGN 193109 10^−6 M, 3 days", "text": "Primary foreskin keratinocytes were isolated according to the procedure described by Nagpal et al. in J. Biol. Chem. 270:923 (1995) and cultured in keratinocyte growth medium (KGM) that was purchased from Clonetics. […] The mRNA was reverse transcribed into cDNA which then served as the template in a PCR amplification protocol using primers specific for either the glyceraldehyde phosphate dehydrogenase (GAPDH) housekeeping gene or MRP-8. The GAPDH primers had the sequences [NT] ID NO:6) and [NT] ID NO:7). The MRP-8 primers had the sequences [NT] ID NO:8) and [NT] ID NO:9). An aliquot from the MRP-8 amplification reaction (10 μl) was removed after every cycle of PCR amplification starting from 12 cycles and ending at 21 cycles. Similarly, an aliquot of the GAPDH amplification reaction was removed after every PCR cycle starting at 15 cycles and ending at 24 cycles. […] The staining intensity of the amplification products served as a quantitative measure of the amount of starting MRNA specific for the given primer set."}, "[4]": {"system": "stromelysin-1 expression in primary foreskin keratinocytes", "assay": "Example 21: stromelysin-1 expression in keratinocytes (RT-PCR)", "type": "cell-based, human", "settings": "AGN 191183 10^−7 M or AGN 193109 10^−6 M, 24 hours", "protocol": "Total RNA prepared from mock-treated and retinoid-treated keratinocytes was reverse transcribed and the resulting cDNA was PCR amplified using β-actin or stromelysin-1 oligo primers exactly as described by Nagpal et al. in J. Biol. Chem. 270:923 (1995)), the disclosure of which has been incorporated by reference. A sample (10 μl) from the PCR amplification reaction was removed after every three cycles starting from 18 cycles of PCR amplification. The sample was electrophoresed on a 2% agarose gel and detected after ethidium bromide staining."}}, "data": [{"compound": "C/C(=C\\c1ccc(C(=O)O)cc1)c1ccc2c(c1)C(C)(C)CCC2(C)C", "note": "[AGN 191183, 4-[(E)-2-(5,6,7,8-tetrahydro-5,5,8,8-tetramethylnaphthalen-2-yl)propen-1-yl]benzoic acid, reference compound]", "values": [{"measurement": "Topical Irritation Score", "setting": "hairless mice [1]", "value": "8 ± 2"}, {"measurement": "Topical Irritation Score", "setting": "hairless mice [2]", "value": "8 ± 1"}, {"measurement": "% Weight Gain or (Loss)", "setting": "hairless mice [2]; day 5 vs day 1, parentheses = loss", "value": "(21 ± 6) %"}, {"measurement": "epiphyseal plate closure", "setting": "guinea pigs", "value": "All four of the AGN 191183-treated guinea pigs showed partial or complete epiphyseal plate closure"}, {"measurement": "EGF mediated proliferation", "setting": "ECE16-1 cells", "value": "completely inhibited EGF mediated proliferation"}, {"measurement": "antiproliferative activity", "setting": "CaSki cells; AGN 191183 10^−10 to 10^−6 M, EGF 20 ng/ml, three days", "value": "no antiproliferative activity"}, {"measurement": "increase in the proliferation rate", "setting": "CaSki cells; ten thousand fold increase in AGN 191183 concentration", "value": "~20", "unit": "%"}, {"measurement": "MRP-8 mRNA expression", "setting": "[3]", "value": "inhibited"}, {"measurement": "stromelysin-1 mRNA expression", "setting": "[4]", "value": "inhibited"}]}]}
